Experimental data: patent US6492383B1, “Thienopyrimidine and thienopyridine derivatives useful as anticancer agents” (Pfizer Inc., priority 1998, dated 2002)

Row | SMILES | melting point [°C]
1 | c1nc(Nc2ccc3[nH]ccc3c2)c2sc(-c3ccc(CN4CCOCC4)cc3)cc2n1 [Example 37, (1H-Indol-5yl)-[6-(4-morpholin4-ylmethyl-phenyl)-thieno[3,2-d]pyrimidin-4-yl]-amine] | 141 to 152
2 | CCOC(=O)CNC(=O)CNCc1ccc(-c2cc3ncnc(Nc4ccc5[nH]ccc5c4)c3s2)cc1 [Example 38, (2-{4-[4-(1H-indol-5-ylamino)-thieno[3,2-d]pyrimidin-6-yl]-benzylamino}-acetylamino)-acetic acid ethyl ester] | 98 to 115
3 | c1nc(Nc2ccc3[nH]ccc3c2)c2sc(-c3ccc(CNC4CC4)cc3)cc2n1 [Example 40, [6-(4-Cyclopropylaminomethyl-phenyl)-thieno[3,2-d]pyrimidin-4-yl]-(1H-indol-5-yl)-amine] | 176 to 180
4 | COCC1CCCN1Cc1ccc(-c2cc3ncnc(Nc4ccc5[nH]ccc5c4)c3s2)cc1 (centres unmarked) [Example 42, (1H-Indol-5-yl)-{6-[4-(2-methoxymethyl-pyrrolidin-1-ylmethyl)-phenyl]-thieno[3,2-d]pyrimidin-4-yl}-amine] | 161 to 177
5 | CC(=O)NCCNCc1ccc(-c2cc3ncnc(Nc4ccc5[nH]ccc5c4)c3s2)cc1 [Example 43, N-(2-{4-[4-(1H-Indol-5-ylamino)-thieno[3,2-d]pyrimidin-6-yl]-benzylamino}-ethyl)-acetamide] | 142 to 155
6 | NC(=O)C1CCN(Cc2ccc(-c3cc4ncnc(Nc5ccc6[nH]ccc6c5)c4s3)cc2)CC1 [Example 44, 1-{4-[4-(1H-Indol-5-ylamino)-thieno[3,2-d]pyrimidin-6-yl]-benzyl}-piperidine-4-carboxylic acid amide] | 198 to 205
7 | O=C(c1ccco1)N1CCN(Cc2ccc(-c3cc4ncnc(Nc5ccc6[nH]ccc6c5)c4s3)cc2)CC1 [Example 46, Furan-2-yl-(4-{4-[4-(1H-indol-5-ylamino)-thieno[3,2-d]pyrimidin-6-yl]-benzyl}-piperazin-1-yl)-methanone] | 167 to 174
8 | COc1ccc(Nc2ccc(Nc3ncnc4cc(-c5ccccc5)sc34)cc2)cc1 [Example 62, N-(4-Methoxy-phenyl)-N′-(6-phenyl-thieno[3,2-d]pyrimidin-4-yl)-benzene-1,4-diamine] | 210 to 211
9 | Cc1cccc(Nc2ccc(Nc3ncnc4cc(-c5ccccc5)sc34)cc2)c1 [Example 63, N-(6-Phenyl-thieno[3,2-d]pyrimidin-4-yl)-N′-m-tolyl-benzene-1,4-diamine] | 170 to 171
10 | Cc1ccc(Nc2ccc(Nc3ncnc4cc(-c5ccccc5)sc34)cc2)cc1 [Example 64, N-(6-Phenyl-thieno[3,2-d]pyrimidin-4-yl)-N′-p-tolyl-benzene-1,4-diamine] | 221 to 222
11 | COc1ccc(Nc2ccc(Nc3ncnc4cc(-c5ccccc5)sc34)cc2)cc1OC [Example 65, N-(3,4-Dimethoxy-phenyl)-N′-(6-phenyl-thieno[3,2-d]pyrimidin-4-yl)-benzene-1,4-diamine] | 160 to 161
12 | COc1cccc(Nc2ccc(Nc3ncnc4cc(-c5ccccc5)sc34)cc2)c1 [Example 66, N-(3-Methoxy-phenyl)-N′-(6-phenyl-thieno[3,2-d]pyrimidin-4-yl)-benzene-1,4-diamine] | 189 to 191
13 | Cc1cc2cc(Nc3ncnc4cc(-c5ccccc5)sc34)ccc2[nH]1 [Example 68, (2-Methyl-1H-indol-5-yl)-(6-phenyl-thieno[3,2-d]pyrimidin-4-yl)-amine] | 218 to 220
14 | CCN(CC)CCCn1ccc2cc(Nc3ncnc4cc(-c5ccccc5)sc34)ccc21 [Example 70, [1-(3-Diethylamino-propyl)-1H-indol-5-yl]-(6-phenyl-thieno[3,2-d]pyrimidin-4-yl) -amine] | 178 to 180
15 | Cc1nc(Nc2ccc3[nH]ccc3c2)c2sc(-c3ccccc3)cc2n1 [Example 71, (1H-Indol-5-yl)-(2-methyl-6-phenyl-thieno[3,2-d]pyrimidin-4-yl)-amine] | 205 to 210
16 | COc1ccc(Nc2ccc(Nc3nc(C)nc4cc(-c5ccccc5)sc34)cc2)cc1 [Example 72, N-(4-Methoxy-phenyl)-N′-(2-methyl-6-phenyl-thieno[3,2-d]pyrimidin-4-yl)-benzene-1,4-diamine] | 181 to 185
17 | c1ccc(COCCNc2ccc(Nc3ncnc4cc(-c5ccccc5)sc34)cc2)cc1 [Example 73, N-(2-Benzyloxy-ethyl)-N′-(6-phenyl-thieno[3,2-d]pyrimidin-4-yl)-benzene-1,4-diamine] | 201 to 203
18 | O=Cc1c[nH]c2ccc(Nc3ncnc4cc(-c5ccccc5)sc34)cc12 [Example 74, 5-(6-Phenyl-thieno[3,2-d]pyrimidin-4-ylamino)-1H-indole-3-carbaldehyde] | 174 to 175
19 | c1ccc(-c2cc3ncnc(Nc4ccc(NCc5c[nH]c6ccccc56)cc4)c3s2)cc1 [Example 76, N-(1H-Indol-3-ylmethyl)-N′-(6-phenyl-thieno[3,2-d]pyrimidin-4-yl)-benzene-1,4-diamine] | 259 to 261
20 | COc1ccc(Nc2ccc(Nc3ncnc4cc(-c5cccs5)sc34)cc2)cc1 [Example 81, N-(4-Methoxy-phenyl)-N′-(6-thiophen-2-yl-thieno[3,2-d]pyrimidin-4-yl)-benzene-1,4-diamine] | 231 to 240
21 | Cc1c[nH]c2ccc(Nc3ncnc4cc(-c5ccccc5)sc34)cc12 [Example 82, (3-Methyl-1H-indol-5-yl)-(6-phenyl-thieno[3,2-d]pyrimidin-4-yl)-amine] | 221 to 223
22 | COc1ccc(-c2cc3ncnc(Nc4ccc5[nH]ccc5c4)c3s2)cn1 [Example 86, (1H-Indol-5-yl)-[6-(6-methoxy-pyridin-3-yl)-thieno[3,2-d]pyrimidin-4-yl]-amine] | 243 to 249
23 | COc1ccc(Nc2ccc(Nc3ccnc4cc(-c5ccc(OC)nc5)sc34)cc2)cc1 [Example 87, N-(4-Methoxy-phenyl)-N′-[2-(6-methoxy-pyridin-3-yl)-thieno[3,2-b]pyridin-7-yl]-benzene-1,4-diamine] | 175 to 184
